Measurements taken from PubChem BioAssay (NCI).
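Protocol summary: plate cells (96-well), add compound at 5 concentrations, incubate 48 h, interpolate endpoints linearly. TGI is the concentration that stops growth completely.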

How the values were obtained:
Assay in all cases: NCI tumour cell line growth inhibition, 48 h
[1] = tested on: HL-60(TB) leukemia
[2] = tested on: U251 CNS
[3] = tested on: SK-MEL-5 melanoma
[4] = tested on: SN12C renal
[5] = tested on: BT-549 breast
[6] = tested on: SF-295 CNS
[7] = tested on: SK-MEL-2 melanoma
[8] = tested on: NCI-H23 lung
[9] = tested on: NCI-H522 lung
[10] = tested on: HCT-116 colon
[11] = tested on: OVCAR-4 ovarian
[12] = tested on: 786-0 renal
[13] = tested on: HT29 colon
[14] = tested on: HOP-92 NSCLC
[15] = tested on: OVCAR-3 ovarian
[16] = tested on: RPMI-8226 leukemia
[17] = tested on: A498 renal
[18] = tested on: UACC-257 melanoma
[19] = tested on: NCI-H460 lung
[20] = tested on: MDA-N

SMILES	TGI [1]	TGI [2]	TGI [3]	TGI [4]	TGI [5]	TGI [6]	TGI [7]	TGI [8]	TGI [9]	TGI [10]	TGI [11]	TGI [12]	TGI [13]	TGI [14]	TGI [15]	TGI [16]	TGI [17]	TGI [18]	TGI [19]	TGI [20]
CC(Oc1ccc(Cl)cc1Cl)C(=O)NN1C(=O)CC(=O)N(c2ccccc2)C1=S (stereo unspecified)	5.73 µM	> 100 µM	> 100 µM	> 100 µM	> 100 µM	> 100 µM	> 100 µM	> 100 µM	> 100 µM	> 100 µM	> 100 µM	> 100 µM	> 100 µM	84 µM	> 100 µM	> 100 µM	95.1 µM	> 100 µM	> 100 µM	–
O=c1oc2c3ccc4ccccc4c3n(CCN3CCCCC3)c2c2ccccc12	> 100 µM	65 µM	> 100 µM	> 100 µM	–	39.3 µM	65.6 µM	> 69.5 µM	> 100 µM	> 100 µM	> 62 µM	27.9 µM	53.4 µM	> 100 µM	54.1 µM	> 100 µM	–	> 100 µM	> 43.9 µM	–
CCCCCCCCC(O)c1ccc(/C=C\C(O)CCCC(=O)O)s1 (stereo unspecified)	> 100 µM	> 100 µM	> 100 µM	> 100 µM	–	> 100 µM	> 100 µM	> 100 µM	> 100 µM	> 100 µM	> 100 µM	> 100 µM	> 100 µM	> 100 µM	> 100 µM	> 100 µM	–	> 100 µM	> 100 µM	–
CCSC1=N/C(=C\c2ccco2)C(=O)N1	–	> 100 µM	> 100 µM	> 100 µM	–	> 100 µM	> 100 µM	> 100 µM	> 100 µM	> 100 µM	–	> 100 µM	> 100 µM	> 100 µM	> 100 µM	> 100 µM	> 100 µM	–	–	> 100 µM
Cc1ccc(-c2cc(-c3ccccc3)c(C#N)c(=O)[nH]2)cc1	> 100 µM	> 100 µM	> 100 µM	> 100 µM	–	> 100 µM	–	> 100 µM	> 100 µM	> 100 µM	> 100 µM	> 100 µM	> 100 µM	> 100 µM	> 100 µM	> 100 µM	> 100 µM	> 100 µM	> 100 µM	–
COc1ccc(/C=C\c2cc(OC)c(OC)c(OC)c2)cc1	–	1.25 µM	14.5 µM	> 100 µM	–	0.000719 µM	> 100 µM	0.0118 µM	0.00151 µM	> 100 µM	–	> 100 µM	13.6 µM	–	0.000152 µM	> 100 µM	13.2 µM	–	15.6 µM	–
COc1ccc(-c2nc(-c3cnccn3)n(C3OC(CO)C(O)C3O)n2)cc1 (stereo unspecified)	> 10 µM	> 10 µM	–	> 10 µM	> 10 µM	> 10 µM	> 10 µM	> 10 µM	> 10 µM	–	> 10 µM	> 10 µM	> 10 µM	> 10 µM	> 10 µM	–	–	> 10 µM	> 10 µM	–
O=C1OC([C@H](O)c2cccnc2)c2ccccc21 (stereo partly specified)	> 10 µM	> 10 µM	> 10 µM	> 10 µM	–	> 10 µM	> 10 µM	> 10 µM	> 10 µM	> 10 µM	> 10 µM	> 10 µM	> 10 µM	> 10 µM	> 10 µM	> 10 µM	–	> 10 µM	> 10 µM	> 10 µM
CCOC(=O)c1nc2ccc(C(F)(F)F)cc2nc1Nc1ccc(OC)cc1	> 100 µM	> 100 µM	> 100 µM	–	86.4 µM	77.6 µM	> 100 µM	> 100 µM	> 100 µM	> 100 µM	49.1 µM	> 100 µM	> 100 µM	49.2 µM	> 100 µM	> 100 µM	> 100 µM	> 100 µM	> 100 µM	–
C1CCCN(NC2=NCCO2)CC1	> 100 µM	> 100 µM	> 100 µM	> 100 µM	–	> 100 µM	> 100 µM	> 100 µM	> 100 µM	> 100 µM	> 100 µM	> 100 µM	> 100 µM	–	> 100 µM	> 100 µM	> 100 µM	> 100 µM	> 100 µM	> 100 µM
COC(=O)[C@@](NC(=O)OCc1ccccc1)([C@H](C)O)C(F)(F)F	> 100 µM	> 100 µM	> 100 µM	–	> 100 µM	> 100 µM	> 100 µM	> 100 µM	> 100 µM	> 100 µM	> 100 µM	> 100 µM	> 100 µM	> 100 µM	> 100 µM	> 100 µM	> 100 µM	> 100 µM	> 100 µM	–
